One assay has as its target T1, human κ (CHO-KOR) opioid receptor (Homo sapiens, UniProt P41145).
T1 construct: expressed in transfected cells
The assay is described as follows: Stimulation of [35S]GTPγS binding, KOR. The class given is biochemical. As to conditions: [35S]GTPγS binding, CHO-KOR membranes; mean ± standard error. An outline of the steps: (§1)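 Membranes (10–20 μg protein) from C6 glioma cells expressing rat MOR or DOR, or CHO cells expressing human KOR, were incubated 1 h at room temperature with 0.1 nM [35S]GTPγS, 30 μM GDP and test peptides in Tris buffer pH 7.4. Bound label was filtered and counted; maximal stimulation, by nonlinear regression, was relative to 10 μM DAMGO (MOR), DPDPE (DOR) or U69,593 (KOR).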
T3 sequence (P33535 whole entry): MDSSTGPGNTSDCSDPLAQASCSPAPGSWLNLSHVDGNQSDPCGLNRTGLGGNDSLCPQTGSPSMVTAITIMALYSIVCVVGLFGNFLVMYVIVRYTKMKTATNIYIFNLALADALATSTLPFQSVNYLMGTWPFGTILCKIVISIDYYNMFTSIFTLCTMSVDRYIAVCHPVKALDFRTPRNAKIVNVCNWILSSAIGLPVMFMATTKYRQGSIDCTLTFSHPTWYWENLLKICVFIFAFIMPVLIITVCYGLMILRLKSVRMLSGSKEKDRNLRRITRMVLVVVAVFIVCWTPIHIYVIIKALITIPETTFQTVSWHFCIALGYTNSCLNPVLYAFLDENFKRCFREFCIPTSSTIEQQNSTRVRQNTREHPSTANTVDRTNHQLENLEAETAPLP
T1 sequence (P41145 whole entry): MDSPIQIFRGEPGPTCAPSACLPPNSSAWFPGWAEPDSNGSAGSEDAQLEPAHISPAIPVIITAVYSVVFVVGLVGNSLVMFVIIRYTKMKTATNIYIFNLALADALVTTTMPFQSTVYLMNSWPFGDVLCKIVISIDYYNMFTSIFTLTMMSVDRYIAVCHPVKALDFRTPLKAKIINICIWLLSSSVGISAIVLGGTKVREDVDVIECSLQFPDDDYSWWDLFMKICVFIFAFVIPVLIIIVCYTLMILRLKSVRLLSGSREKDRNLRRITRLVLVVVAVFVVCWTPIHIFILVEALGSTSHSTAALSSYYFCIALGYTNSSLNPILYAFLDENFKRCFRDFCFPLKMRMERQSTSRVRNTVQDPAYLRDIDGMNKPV
T2 sequence (P33533 whole entry): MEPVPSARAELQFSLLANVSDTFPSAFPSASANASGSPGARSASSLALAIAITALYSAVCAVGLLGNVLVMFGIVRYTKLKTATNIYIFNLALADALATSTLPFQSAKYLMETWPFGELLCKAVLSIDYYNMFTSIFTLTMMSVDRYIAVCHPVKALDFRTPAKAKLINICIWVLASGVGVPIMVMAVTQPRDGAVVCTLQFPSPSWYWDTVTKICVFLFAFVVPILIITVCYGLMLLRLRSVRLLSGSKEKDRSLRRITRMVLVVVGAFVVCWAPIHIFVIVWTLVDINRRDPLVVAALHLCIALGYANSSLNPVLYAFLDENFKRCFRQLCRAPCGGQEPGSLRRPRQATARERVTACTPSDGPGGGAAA
With `Cc1cc(O)cc(C)c1C[C@H](N)C(=O)N[C@@H]1CCNc2c1cc(Cc1ccccc1)cc2C(C)(C)C` [Compound 1057], the “EC50 (nm) KOR” value is “dns”.
The compound `Cc1cc(O)cc(C)c1C[C@H](N)C(=O)N[C@@H]1CCNc2c(Br)cc(Cc3ccccc3)cc21` [Compound 1128] gave an EC50 of 300 nM.
In the case of `Cc1cc(O)cc(C)c1C[C@H](N)C(=O)N[C@@H]1CCNc2c(CCc3ccccc3)cc(Cc3ccccc3)cc21` [Compound 1098], the “EC50 (nm) KOR” value was “dns”.
On the same count and under the same terms, the result for `Cc1cc(O)cc(C)c1C[C@H](N)C(=O)N[C@@H]1CCNc2c(CN3CCOCC3)cc(Cc3ccccc3)cc21` [Compound 1099] reads “dns”.

Staying with this assay, now noted: [35S]GTPγS maximal stimulation compared with 10 μM standard U-69,593.
`Cc1cc(O)cc(C)c1C[C@H](N)C(=O)N[C@@H]1CCNc2c1cc(Cc1ccccc1)cc2C(C)(C)C` [Compound 1057]: the “% stimulation KOR” value is listed as “dns”.
As for `Cc1cc(O)cc(C)c1C[C@H](N)C(=O)N[C@@H]1CCNc2c(Br)cc(Cc3ccccc3)cc21` [Compound 1128], the Emax was determined as 30%.
On to `Cc1cc(O)cc(C)c1C[C@H](N)C(=O)N[C@@H]1CCNc2c(CCc3ccccc3)cc(Cc3ccccc3)cc21` [Compound 1098], for which the “% stimulation KOR” value is “dns”.
In the case of `Cc1cc(O)cc(C)c1C[C@H](N)C(=O)N[C@@H]1CCNc2c(CN3CCOCC3)cc(Cc3ccccc3)cc21` [Compound 1099], the “% stimulation KOR” value is “dns”.

A further assay concerns the target T2, rat δ (C6-DOR) opioid receptor (Rattus norvegicus, UniProt P33533).
T2 construct: expressed in transfected cells
The assay is described as follows: Radioligand binding assay, [3H]diprenorphine displacement, DOR. As to conditions: displacement of 0.2 nM [3H]diprenorphine, C6-DOR membranes; mean ± standard error. Put shortly: (§2)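 Ki values come from logistic fits of competition data, with filter-bound radioactivity counted after displacement of 0.2 nM [3H]diprenorphine. Membranes were from rat receptor-transfected C6 cells (MOR, DOR) or human KOR-expressing CHO cells. Incubation ran 1 h at room temperature in pH 7.4 Tris-HCl.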
Turning to `Cc1cc(O)cc(C)c1C[C@H](N)C(=O)N[C@@H]1CCNc2c1cc(Cc1ccccc1)cc2C(C)(C)C` [Compound 1057], the Ki came out at 3.78 ± 0.66 nM.
As for `Cc1cc(O)cc(C)c1C[C@H](N)C(=O)N[C@@H]1CCNc2c(Br)cc(Cc3ccccc3)cc21` [Compound 1128], the Ki worked out at 2.2 nM.
`Cc1cc(O)cc(C)c1C[C@H](N)C(=O)N[C@@H]1CCNc2c(CCc3ccccc3)cc(Cc3ccccc3)cc21` [Compound 1098]: the affinity corresponds to a Ki of 0.69 ± 0.03 nM.
In turn, `Cc1cc(O)cc(C)c1C[C@H](N)C(=O)N[C@@H]1CCNc2c(CN3CCOCC3)cc(Cc3ccccc3)cc21` [Compound 1099] had a Ki of 2.61 ± 0.79 nM.

Another assay has as its target T3, rat μ (C6-MOR) opioid receptor (Rattus norvegicus, UniProt P33535).
T3 construct: expressed in transfected cells
Nature of the assay: Stimulation of [35S]GTPγS binding, MOR. The class given is biochemical. As to conditions: [35S]GTPγS binding, C6-MOR membranes; mean ± standard error. Put shortly: as §1
The compound `Cc1cc(O)cc(C)c1C[C@H](N)C(=O)N[C@@H]1CCNc2c1cc(Cc1ccccc1)cc2C(C)(C)C` [Compound 1057] had an EC50 of 9.87 ± 3.55 nM.
In turn, `Cc1cc(O)cc(C)c1C[C@H](N)C(=O)N[C@@H]1CCNc2c(Br)cc(Cc3ccccc3)cc21` [Compound 1128] registered an EC50 of 1.2 nM.
`Cc1cc(O)cc(C)c1C[C@H](N)C(=O)N[C@@H]1CCNc2c(CCc3ccccc3)cc(Cc3ccccc3)cc21` [Compound 1098] displayed an EC50 of 44.4 ± 16.6 nM.
Still for that read-out and setting: the result for `Cc1cc(O)cc(C)c1C[C@H](N)C(=O)N[C@@H]1CCNc2c(CN3CCOCC3)cc(Cc3ccccc3)cc21` [Compound 1099] reads 1.84 ± 0.41 nM.

Staying with this assay, now noted: [35S]GTPγS maximal stimulation compared with 10 μM standard DAMGO.
Consider `Cc1cc(O)cc(C)c1C[C@H](N)C(=O)N[C@@H]1CCNc2c1cc(Cc1ccccc1)cc2C(C)(C)C` [Compound 1057], for which the Emax stood at 83.2 ± 4.6%.
Compound `Cc1cc(O)cc(C)c1C[C@H](N)C(=O)N[C@@H]1CCNc2c(Br)cc(Cc3ccccc3)cc21` [Compound 1128] gave an Emax of 73%.
`Cc1cc(O)cc(C)c1C[C@H](N)C(=O)N[C@@H]1CCNc2c(CCc3ccccc3)cc(Cc3ccccc3)cc21` [Compound 1098] displayed an Emax of 78.4 ± 1.26%.
`Cc1cc(O)cc(C)c1C[C@H](N)C(=O)N[C@@H]1CCNc2c(CN3CCOCC3)cc(Cc3ccccc3)cc21` [Compound 1099] showed an Emax of 96.1 ± 1.76%.

For a further assay, the target named is T3, rat μ (C6-MOR) opioid receptor. Nature of the assay: Radioligand binding assay, [3H]diprenorphine displacement, MOR. As to conditions: displacement of 0.2 nM [3H]diprenorphine, C6-MOR membranes; mean ± standard error. An outline of the steps:
as §2
`Cc1cc(O)cc(C)c1C[C@H](N)C(=O)N[C@@H]1CCNc2c1cc(Cc1ccccc1)cc2C(C)(C)C` [Compound 1057] came in with a Ki of 0.91 ± 0.4 nM.
Regarding `Cc1cc(O)cc(C)c1C[C@H](N)C(=O)N[C@@H]1CCNc2c(Br)cc(Cc3ccccc3)cc21` [Compound 1128], affinity was put at a Ki of 0.2 nM.
In the case of `Cc1cc(O)cc(C)c1C[C@H](N)C(=O)N[C@@H]1CCNc2c(CCc3ccccc3)cc(Cc3ccccc3)cc21` [Compound 1098], the Ki amounted to 0.64 ± 0.34 nM.
`Cc1cc(O)cc(C)c1C[C@H](N)C(=O)N[C@@H]1CCNc2c(CN3CCOCC3)cc(Cc3ccccc3)cc21` [Compound 1099] had a Ki of 0.15 ± 0.04 nM.

For a further assay, the system named is C57BL/6 mice. The assay is described as follows: Antinociception, warm water tail withdrawal assay.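 Further: fully efficacious means no withdrawal up to the 20 s cutoff.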 The class given is in vivo. As to conditions: mouse tail withdrawal, 50° C. water bath, cutoff 20 s, ip. As for the experimental part:
In Vivo Pharmacology. Animals. Adult male C57BL/6 mice weighing between 20 and 30 g at 8-16 weeks old were used for the current experiments (obtained from Jackson Laboratories (Bar Harbor, Me.), Harlan (Indianapolis, Ind.), or bred in-house). Mice were group-housed and had free access to food and water at all times. Experiments were conducted in the housing room, which was maintained on a 12 h light/dark cycle (with lights on at 0700). Each mouse was used only once and experiments were conducted between 11 a.m. and 4 p.m. Studies were performed in accordance with the University of Michigan Committee on the Use and Care of Animals and the Guide for the Care and Use of Laboratory Animals (National Research Council, 2011 publication).
Antinociception. The antinociceptive effects of the compounds disclosed herein and morphine can be evaluated in the warm water tail withdrawal assay using a cumulative dosing procedure. To determine tail withdrawal latencies, each mouse was placed briefly into a plastic, cylindrical restrainer and 2-3 cm of the tail tip was placed into a water bath maintained at 50° C. The latency to withdraw the tail was recorded with a maximum cutoff time of 20 s. […] Each animal received an injection of saline (intraperitoneal, ip) and then 30 min later, the baseline withdrawal latencies were recorded and ranged between 3 and 6 s. Following baseline determinations, three increasing doses (1, 2.2, and 6.8 mg/kg) of 1(4R) were given at 30 min intervals to provide final doses of 1, 3.2, and 10 mg/kg. Thirty minutes after each injection, the tail withdrawal latency was measured as described above. To confirm that 1(4R) was acting at opioid receptors, the cumulative dose response was repeated over the doses 3.2, 10, and 32 mg/kg following a 30 min pretreatment with 1 mg/kg naltrexone (ip). To determine the time-course of antinociceptive action the tail-withdrawal test was performed at varying times following administration of morphine (10 mg/kg, ip) or 1(4R) (10 mg/kg, ip).
Regarding `Cc1cc(O)cc(C)c1C[C@H](N)C(=O)N[C@@H]1CCNc2c1cc(Cc1ccccc1)cc2C(C)(C)C` [Compound 1057], the Antinociceptive activity entry is listed as “Partially active”.
In the case of `Cc1cc(O)cc(C)c1C[C@H](N)C(=O)N[C@@H]1CCNc2c(Br)cc(Cc3ccccc3)cc21` [Compound 1128], the Antinociceptive activity entry is given as “Inactive”.
In the case of `Cc1cc(O)cc(C)c1C[C@H](N)C(=O)N[C@@H]1CCNc2c(CCc3ccccc3)cc(Cc3ccccc3)cc21` [Compound 1098], the Antinociceptive activity result was “Inactive”.
`Cc1cc(O)cc(C)c1C[C@H](N)C(=O)N[C@@H]1CCNc2c(CN3CCOCC3)cc(Cc3ccccc3)cc21` [Compound 1099]: the Antinociceptive activity entry was “Inactive”.

The target of the next assay is T1, human κ (CHO-KOR) opioid receptor. The assay is described as follows: Radioligand binding assay, [3H]diprenorphine displacement, KOR. As to conditions: displacement of 0.2 nM [3H]diprenorphine, CHO-KOR membranes; mean ± standard error. Put shortly: as §2
The compound `Cc1cc(O)cc(C)c1C[C@H](N)C(=O)N[C@@H]1CCNc2c1cc(Cc1ccccc1)cc2C(C)(C)C` [Compound 1057] yielded a Ki of 64.7 ± 17.8 nM.
Regarding `Cc1cc(O)cc(C)c1C[C@H](N)C(=O)N[C@@H]1CCNc2c(Br)cc(Cc3ccccc3)cc21` [Compound 1128], the Ki was 27 nM.
Turning to `Cc1cc(O)cc(C)c1C[C@H](N)C(=O)N[C@@H]1CCNc2c(CCc3ccccc3)cc(Cc3ccccc3)cc21` [Compound 1098], the Ki was 27.5 ± 7.81 nM.
For the compound `Cc1cc(O)cc(C)c1C[C@H](N)C(=O)N[C@@H]1CCNc2c(CN3CCOCC3)cc(Cc3ccccc3)cc21` [Compound 1099], the affinity, expressed as Ki, was 19.4 ± 8.53 nM.

Another assay addresses T2, rat δ (C6-DOR) opioid receptor. Nature of the assay: Stimulation of [35S]GTPγS binding, DOR. It is filed as biochemical. As to conditions: [35S]GTPγS binding, C6-DOR membranes; mean ± standard error. An outline of the steps: as §1
With `Cc1cc(O)cc(C)c1C[C@H](N)C(=O)N[C@@H]1CCNc2c1cc(Cc1ccccc1)cc2C(C)(C)C` [Compound 1057], the EC50 stood at 238 ± 39.3 nM.
On the same count and under the same terms, as for `Cc1cc(O)cc(C)c1C[C@H](N)C(=O)N[C@@H]1CCNc2c(Br)cc(Cc3ccccc3)cc21` [Compound 1128], the figure is 36 nM.
As to `Cc1cc(O)cc(C)c1C[C@H](N)C(=O)N[C@@H]1CCNc2c(CCc3ccccc3)cc(Cc3ccccc3)cc21` [Compound 1098], the “EC50 (nm) DOR” value was “dns”.
`Cc1cc(O)cc(C)c1C[C@H](N)C(=O)N[C@@H]1CCNc2c(CN3CCOCC3)cc(Cc3ccccc3)cc21` [Compound 1099] displayed an EC50 of 172 ± 65.8 nM.

Staying with this assay, now noted: [35S]GTPγS maximal stimulation compared with 10 μM standard DPDPE.
As for `Cc1cc(O)cc(C)c1C[C@H](N)C(=O)N[C@@H]1CCNc2c1cc(Cc1ccccc1)cc2C(C)(C)C` [Compound 1057], the Emax worked out at 57.9 ± 14%.
In the case of `Cc1cc(O)cc(C)c1C[C@H](N)C(=O)N[C@@H]1CCNc2c(Br)cc(Cc3ccccc3)cc21` [Compound 1128], the Emax was found to be 69%.
As for `Cc1cc(O)cc(C)c1C[C@H](N)C(=O)N[C@@H]1CCNc2c(CCc3ccccc3)cc(Cc3ccccc3)cc21` [Compound 1098], the “% stimulation DOR” value is “dns”.
As to `Cc1cc(O)cc(C)c1C[C@H](N)C(=O)N[C@@H]1CCNc2c(CN3CCOCC3)cc(Cc3ccccc3)cc21` [Compound 1099], the Emax was 29 ± 6.78%.

For the origin of these results see US10519114B2, “Peptidomimetics and methods of using the same” (The Regents of the University of Michigan, priority 2016, dated 2019).
